In patent US11479587B2, “Cationic intrinsically disordered antimicrobial peptides” (priority 2016, dated 2022):
“And” between values parts separate entries of the source, which are not always exact repeats. Equal entries are not always repeated. Where two headings read alike, the source gives them in different places. Residues, ends and D or L forms follow the SMILES beside them.

Key:
[1] = test system: methicillin-resistant S. aureus strain (ATCC 43300); type: cell-based, Staphylococcus aureus
Protocol: Furthermore, sensitivity of a methicillin-resistant S. aureus strain (ATCC 43300) was investigated for palmitoylated CIDAMPs in a microtiter plate screening model, with incubation in Mueller-Hinton medium at 37° C. for 18 h using resazurin as a marker for cell viability.
A sample of each culture was then diluted 40-fold in fresh broth and incubated at 37° C. for 1.5-3 h. […] All the plates were covered and incubated at 37° C. for 18 h.
(§1) Inhibition of bacterial growth was determined using resazurin as a marker for cell viability. Resazurin was added to each well, at 0.001% final concentration, and plates incubated at 37° C. for 2 h. Fluorescence intensity was measured, using F (top read), ex 560/10 nm, em 590/10 nm, using a Tecan M1000 Pro monochromator plate reader.

[2] = Cytotoxicity (resazurin) assay
How it was run: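 CC50 values were derived by fitting concentration-dependent percentage cytotoxicity to a dose–response function. The read-out was resazurin fluorescence (ex 560, em 590 nm; 100 μM, 3 h) after 20 h compound treatment of HEK293 cells at 37 °C in DMEM with 10% FBS.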

Hemolysis assay = type: cell-based
How it was run: (§2)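 Washed EDTA-blood erythrocytes in 5% PBS, pH 7.4, were rotated 1 h at 37° C with peptides at 0, 3, 10, 30, 60 μm. Hemoglobin release read at 540 nm as % of 0.1% Triton X-100 hemolysis; CC50 from dose-response curve of triplicates.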

A. baumannii ATCC 19606 = type: cell-based, Acinetobacter baumannii
Protocol: as §1

E. coli ATCC 25922 = type: cell-based, Escherichia coli
Protocol: as §1

erythrocytes = assay: Hemolysis assay; type: cell-based
How it was run: as §2

P. aeruginosa ATCC 27853 = type: cell-based, Pseudomonas aeruginosa; conditions: ATCC 27853, 2 h
Protocol: as §1

Row | MIC, C. neoformans ATCC 208821 (C. neoformans) [mg/L] | MIC, S. aureus ATCC 43300 ([1]; ATCC 43300, 18 h) [mg/L] | MIC, A. baumannii ATCC 19606 (A. baumannii ATCC 19606; ATCC 19606, 2 h) [mg/L] | MIC, E. coli ATCC 25922 (E. coli ATCC 25922; ATCC 25922, 2 h) [mg/L] | MIC, P. aeruginosa ATCC 27853 (P. aeruginosa ATCC 27853) [mg/L] | MIC (C. albicans ATCC 928; ATCC 928, 18 h, pH 7.4) [mg/L] | MIC, C. albicans ATCC 90028 (C. albicans ATCC 928; ATCC 928) [mg/L] | Compound | MIC, S. aureus ATCC 43300 ([1]; Mueller-Hinton medium) [mg/L] | CC50 [2] | HC50 (Hemolysis assay; erythrocytes, read-out: Hemolysis (CC50)) [µg/mL] | MIC, A. baumannii ATCC 19606 (A. baumannii ATCC 19606; Mueller-Hinton medium) [mg/L] | MIC, E. coli ATCC 25922 (E. coli ATCC 25922; Mueller-Hinton medium) [mg/L] | MIC, C. albicans ATCC 90028 (C. albicans ATCC 928) [mg/L] | HC50 (Hemolysis assay) [µg/mL] | HC50 at 1 h (Hemolysis assay; human, washed erythrocytes from EDTA-blood, pH 7.4) [µM] | hemolytic activity (in words) (erythrocytes)
1 | ≥1 | ≥8 | ≥1 | ≥4 | ≥16 | 1 to 32 | – | CCCCCCCCCCCCCCCC(=O)NCC(=O)N[C@@H](CCCNC(=N)N)C(=O)N[C@@H](CCCNC(=N)N)C(=O)NCC(=O)N[C@@H](CO)C(=O)NCC(=O)N[C@@H](CC(C)C)C(=O)NCC(=O)N[C@@H](CCCNC(=N)N)C(=O)N[C@@H](CO)C(=O)N[C@@H](CO)C(=O)N[C@@H](CO)C(=O)N[C@@H](CCCNC(=N)N)C(=O)NCC(=O)N[C@@H](CCC(N)=O)C(=O)N[C@@H](CCCNC(=N)N)C(=O)NCC(=O)N[C@@H](CO)C(=O)NCC(=O)N[C@@H](CO)C(=O)NCC(=O)N[C@@H](CCCNC(=N)N)C(=O)O [Pal-HR 1-18 HR] (HELM PEPTIDE1{[CCCCCCCCCCCCCCCC(=O)[*:2]].G.R.R.G.S.G.L.G.R.S.S.S.R.G.Q.R.G.S.G.S.G.R}$$$$V2.0) | – | > 32 µg/mL and > 13.3 µM | – | – | – | – | > 300 | > 119 | low hemolytic activity
2 | ≥4 | ≥4 | ≥8 | ≥8 | ≥16 | – | ≥4 | CCCCCCCCCCCCCCCC(=O)NCC(=O)N[C@@H](CCCNC(=N)N)C(=O)N[C@@H](CCCNC(=N)N)C(=O)NCC(=O)NCC(=O)N[C@@H](CCCNC(=N)N)C(=O)NCC(=O)NCC(=O)N[C@@H](CCCNC(=N)N)C(=O)NCC(=O)N[C@@H](CCCNC(=N)N)C(=O)O [Pal-GR11] (HELM PEPTIDE1{[CCCCCCCCCCCCCCCC(=O)[*:2]].G.R.R.G.G.R.G.G.R.G.R}$$$$V2.0) | – | > 32 mg/L | – | – | – | – | 90 | – | –

Row | Compound | MIC, C. neoformans ATCC 208821 (C. neoformans) [mg/L] | MIC, S. aureus ATCC 43300 ([1]; ATCC 43300, 18 h) [mg/L] | MIC, A. baumannii ATCC 19606 (A. baumannii ATCC 19606; ATCC 19606, 2 h) [mg/L] | MIC, E. coli ATCC 25922 (E. coli ATCC 25922; ATCC 25922, 2 h) [mg/L] | MIC, P. aeruginosa ATCC 27853 (P. aeruginosa ATCC 27853) [mg/L] | MIC (C. albicans ATCC 928; ATCC 928, 18 h, pH 7.4) [mg/L] | MIC, C. albicans ATCC 90028 (C. albicans ATCC 928; ATCC 928) [mg/L] | MIC, S. aureus ATCC 43300 ([1]; Mueller-Hinton medium) [mg/L] | CC50 [2] | HC50 (Hemolysis assay; erythrocytes, read-out: Hemolysis (CC50)) [µg/mL] | MIC, A. baumannii ATCC 19606 (A. baumannii ATCC 19606; Mueller-Hinton medium) [mg/L] | MIC, E. coli ATCC 25922 (E. coli ATCC 25922; Mueller-Hinton medium) [mg/L] | MIC, C. albicans ATCC 90028 (C. albicans ATCC 928) [mg/L] | HC50 (Hemolysis assay) [µg/mL] | HC50 at 1 h (Hemolysis assay; human, washed erythrocytes from EDTA-blood, pH 7.4) [µM] | hemolytic activity (in words) (erythrocytes)
3 | CCCCCCCCCCCCCCCC(=O)N[C@@H](CCCNC(=N)N)C(=O)NCC(=O)N[C@@H](CO)C(=O)N[C@@H](CCCNC(=N)N)C(=O)N[C@@H](CO)C(=O)NCC(=O)N[C@@H](CCC(N)=O)C(=O)N[C@@H](CO)C(=O)N[C@@H](CO)C(=O)N[C@@H](CCCNC(=N)N)C(=O)NCC(=O)N[C@@H](CCC(=O)O)C(=O)N[C@@H](CCCNC(=N)N)C(=O)N[C@@H](CCCNC(=N)N)C(=O)NCC(=O)N[C@@H](CO)C(=O)N[C@@H](CO)C(=O)N[C@@H](CO)C(=O)NCC(=O)N[C@@H](CO)C(=O)N[C@@H](CO)C(=O)N[C@@H](CO)C(=O)N[C@@H](CCCNC(=N)N)C(=O)O [Pal-HR 1-11 3H3R] (HELM PEPTIDE1{[CCCCCCCCCCCCCCCC(=O)[*:2]].R.G.S.R.S.G.Q.S.S.R.G.E.R.R.G.S.S.S.G.S.S.S.R}$$$$V2.0) | ≥32 | – | – | – | – | – | – | >32 | > 32 mg/L | > 300 | ≥8 | ≥32 | ≥32 | – | – | –
